Test results: patent US12492196B2, “Thienyloxazolones and analogues” (Bayer Aktiengesellschaft, priority 2019, dated 2025)
Marks after values point to notes of the source that are not given here.

How the values were obtained:
[1] = system: Colletotrichum lindemuthianum; assay: Colletotrichum lindemuthianum in vitro cell test; type: cell-based; conditions: 144 h, 20 ppm of active ingredient, 6 days incubation, read-out: efficacy (direct activity, inhibition of fungal growth)
Description: Solvent: DMSO Culture medium: 14.6 g anhydrous D-glucose (VWR), 7.1 g Mycological Peptone (Oxoid), 1.4 g granulated Yeast Extract (Merck), QSP 1 liter Inoculum: spores suspension Fungicides were solubilized in DMSO and the solution used to prepare the required range of concentrations. The final concentration of DMSO used in the assay was ≤1%. A spore suspension of C. lindemuthianum was prepared and diluted to the desired spore density. Fungicides were evaluated for their ability to inhibit spores germination and mycelium growth in liquid culture assay. The compounds were added in the desired concentration to the culture medium with spores. After 6 days incubation, fungi-toxicity of compounds was determined by spectrometric measurement of mycelium growth. Inhibition of fungal growth was determined by comparing the absorbance values in wells containing the fungicides with the absorbance in control wells without fungicides.

[2] = system: Colletotrichum lindemuthianum; assay: In vivo preventive test on Colletotrichum lindemuthianum (Antrachnose on bean); conditions: for pest or weed control at 31 ppm / pest or weed control at 500 ppm: Colletotrichum lindemuthianum, 144 h, bean, evaluated 6 days after inoculation, read-out: efficacy; for pest or weed control at 31 ppm: 31 ppm of active ingredient; for pest or weed control at 500 ppm: 500 ppm of active ingredient
Description: The tested active ingredients were prepared by homogenization in a mixture of acetone/Dimethyl sulfoxide/Tween®, and then diluted with water to obtain the desired active material concentration. The young plants of bean were treated by spraying the active ingredient prepared as described above. Control plants were treated only with an aqueous solution of acetone/Dimethyl sulfoxide/Tween®.
After 72 hours, the plants were contaminated by spraying the leaves with an aqueous suspension of Colletotrichum lindemuthianum spores. The contaminated bean plants were incubated for 24 hours at 20° C. and at 100% relative humidity and then for 5 days at 20° C. and at 90% relative humidity.
The test was evaluated 6 days after the inoculation. 0% means an efficacy which corresponds to that of the control plants while an efficacy of 100% means that no disease was observed.
Compound CMP1 was tested in an in vivo preventive test on Colletotrichum lindemuthianum (Antrachnose on bean) in the same conditions as described in Example D.

[3] = system: Xanthomonas campestris pv. campestris; assay: Xanthomonas campestris pv. campestris in vitro cell test; type: cell-based; conditions: 20 ppm of active ingredient, 24 h incubation, read-out: efficacy (direct activity, inhibition of bacteria growth)
Description: Solvent: DMSO Culture medium: LB broth medium (Luria Broth Miller) Sigma Inoculum: bacteria suspension Compounds were solubilized in DMSO and the solution used to prepare the required range of concentrations. The final concentration of DMSO used in the assay was ≤1%. Inoculum was prepared from a pre-culture of bacteria grown in liquid medium and diluted to the desired optical density (OD). Compounds were evaluated for their ability to inhibit bacteria growth in liquid culture assay. The compounds were added in the desired concentrations to culture medium containing the bacteria suspension. After 24 h of incubation, the efficacy of compounds was determined by spectrometric measurement of bacteria growth. Inhibition was determined by comparing the absorbance values in wells containing the compounds with the absorbance in control wells without active ingredients.

[4] = Log P by HPLC on reversed phase columns (EEC directive 79/831 Annex V.A8); type: physicochemical
Description: In the above table, measurement of Log P values was performed according to EEC directive 79/831 Annex V.A8 by HPLC (High Performance Liquid Chromatography) on reversed phase columns with the following methods: • [^a] Log P value is determined by measurement of LC-UV, in an acidic range, with 0.1% formic acid in water and acetonitrile as eluent (linear gradient from 10% acetonitrile to 95% acetonitrile). • [^b] Log P value is determined by measurement of LC-UV, in a neutral range, with 0.001 molar ammonium acetate solution in water and acetonitrile as eluent (linear gradient from 10% acetonitrile to 95% acetonitrile). • [^c] Log P value is determined by measurement of LC-UV, in an acidic range, with 0.1% phosphoric acid and acetonitrile as eluent (linear gradient from 10% acetonitrile to 95% acetonitrile).
If more than one Log P value is available within the same method, all the values are given and separated by “+”.
Calibration was done with straight-chain alkan2-ones (with 3 to 16 carbon atoms) with known Log P values (measurement of Log P values using retention times with linear interpolation between successive alkanones). Lambda-max-values were determined using UV-spectra from 200 nm to 400 nm and the peak values of the chromatographic signals.

[5] = system: Uromyces appendiculatus; assay: In vivo preventive test on Uromyces appendiculatus (bean rust); conditions: for pest or weed control at 31 ppm / pest or weed control at 125 ppm / pest or weed control at 500 ppm: Uromyces appendiculatus, 240 h, bean, evaluated 10 days after inoculation, read-out: efficacy; for pest or weed control at 31 ppm: 31 ppm of active ingredient; for pest or weed control at 125 ppm: 125 ppm of active ingredient; for pest or weed control at 500 ppm: 500 ppm of active ingredient
Description: (§1) The tested active ingredients were prepared by homogenization in a mixture of acetone/Dimethyl sulfoxide/Tween®, and then diluted with water to obtain the desired active material concentration.
The young plants of bean were treated by spraying the active ingredient prepared as described above.
Control plants were treated only with an aqueous solution of acetone/Dimethyl sulfoxide/Tween®.
After 72 hours, the plants were contaminated by spraying the leaves with an aqueous suspension of Uromyces appendiculatus spores. The contaminated bean plants were incubated for 24 hours at 20° C. and at 100% relative humidity and then for 9 days at 20° C. and at 70-80% relative humidity.
The test was evaluated 10 days after the inoculation. 0% means an efficacy which corresponds to that of the control plants while an efficacy of 100% means that no disease was observed.
Compound CMP1 was tested in an in vivo preventive test on Uromyces appendiculatus (bean rust) in the same conditions as described in Example G.

[6] = system: Xanthomonas campestris pv. campestris; assay: In vivo preventive test on Xanthomonas campestris pv. campestris (black rot on cabbage); conditions: for pest or weed control at 31 ppm / pest or weed control at 125 ppm: Xanthomonas campestris, cabbage, evaluated 8 or 10 days after inoculation, read-out: efficacy; for pest or weed control at 31 ppm: 31 ppm of active ingredient; for pest or weed control at 125 ppm: 125 ppm of active ingredient
Description: as §1
(§2) The young plants of cabbage were treated by spraying the active ingredient prepared as described above. Control plants were treated only with an aqueous solution of acetone/Dimethyl sulfoxide/Tween®.
After 72 hours, the plants were contaminated by spraying the leaves with an aqueous bacteria suspension of Xanthomonas campestris pv. campestris. The contaminated cabbage plants were incubated for 8 or 10 days at 27° C. at 95% relative humidity.
The test was evaluated 8 or 10 days after the inoculation. 0% means an efficacy which corresponds to that of the control plants while an efficacy of 100% means that no disease was observed.
Compound CMP1 was tested in an in vivo preventive test on Xanthomonas campestris pv. campestris (black rot on cabbage) in the same conditions as described in Example F.

[7] = system: Peronospora parasitica; assay: In vivo preventive test on Peronospora parasitica (crucifer downy mildew); conditions: Hyaloperonospora parasitica, 120 h; 125 ppm of active ingredient; cabbage; evaluated 5 days after inoculation; read-out: efficacy
Description: as §1, §2
After 72 hours, the plants were contaminated by spraying the leaves with an aqueous suspension of Peronospora parasitica spores. The contaminated cabbage plants were incubated for 5 days at 20° C. and at 100% relative humidity.
The test was evaluated 5 days after the inoculation. 0% means an efficacy which corresponds to that of the control plants while an efficacy of 100% means that no disease was observed.

[8] = system: salicylate responsive promoter sequence of the PR1 (pathogenesis-related protein I) gene (AT2G14610); assay: Induction of defense gene expression in Arabidopsis thaliana (PR1 promoter-GFP reporter plants); type: in vivo; conditions: 72 h, 3rd day after spraying, mock treated leaves set as 1.00, read-out: relative fluorescence value; for fold induction at 75 ppm: 75 ppm of compound
Description: Arabidopsis thaliana reporter plants containing the coding sequence of a green fluorescent protein (GFP) linked to the salicylate responsive promoter sequence of the PR1 (pathogenesis-related protein I) gene (AT2G14610) were grown for five days and then sprayed with compounds. On the 3rd day after spraying, plant fluorescence was assessed with a MacroFluo instrument from Leica Microsystems (Wetzlar, Germany). Fluorescences were quantified with the Meta-Morph Microscopy Automation & Image Analysis Software (Molecular Devices, Sunnyvale, Calif., United States).
Background fluorescence in mock treated leaves was set as 1.00.

[9] = reversed phase HPLC columns, method [a]: LC-UV, acidic range, 0.1% formic acid in water and acetonitrile as eluent

| Compound | inhibition at 20 ppm [1] [%] | pest or weed control at 31 ppm [2] [%] | inhibition at 20 ppm [3] [%] | chromatographic logP [4, 9] | pest or weed control at 31 ppm [5] [%] | pest or weed control at 125 ppm [5] [%] | pest or weed control at 500 ppm [2] [%] | pest or weed control at 31 ppm [6] [%] | pest or weed control at 125 ppm [7] [%] | pest or weed control at 500 ppm [5] [%] | fold induction at 75 ppm [8] | fold induction at 300 ppm [8] | pest or weed control at 125 ppm [6] [%] | Efficacy (%) at 31 ppm ([2]; 31 ppm, conditions of Example D) [%] | Efficacy (%) at 31 ppm ([6]; 31 ppm, arithmetic mean of 4 tests, conditions of Example F) | Efficacy (%) at 125 ppm ([6]; 125 ppm, arithmetic mean of 4 tests, conditions of Example F) | Efficacy (%) at 31 ppm ([5]; 31 ppm, arithmetic mean of 3 tests, conditions of Example G) | Efficacy (%) at 125 ppm ([5]; 125 ppm, arithmetic mean of 3 tests, conditions of Example G) | chromatographic logP ([4]; given in preparation examples, method not marked) |
| --- | --- | --- | --- | --- | --- | --- | --- | --- | --- | --- | --- | --- | --- | --- | --- | --- | --- | --- | --- |
| O=C1OC(c2sc(Cl)c(Br)c2Cl)=NC12CCC2 [I.25] | ≤ 30 | 70 to 79 | ≤ 30 | 4.47 | 90 to 100 | 90 to 100 |  |  |  |  |  |  |  |  |  |  |  |  |  |
| O=C1OC(c2cc(Br)c(C(F)(F)F)s2)=NC12CC2 [I.26] |  |  |  | 3.98 |  |  | 70 to 79 | 70 to 79 | 90 to 100 | 90 to 100 |  |  |  |  |  |  |  |  |  |
| O=C1OC(c2sc(Cl)c(Br)c2Br)=NC12CC2 [I.08] | ≤ 30 |  | ≤ 30 | 4.12 | 90 to 100 | 90 to 100 | 90 to 100 | 80 to 89 | 90 to 100 | 90 to 100 | > 2 | > 2 | 70 to 79 |  |  |  |  |  |  |
| O=C1OC(c2cc(Br)c(Br)s2)=NC12CC2 [CMP1, reference compound] |  | < 20 |  |  | < 40 | 42 |  | < 40 |  |  |  |  | < 40 | 19 | 35* % | 37* % | 32* % | 42* % |  |
| O=C1OC(c2sc(Br)c(Br)c2Cl)=NC12CCC2 [I.17] | ≤ 30 |  | ≤ 30 | 4.51 |  | 90 to 100 |  |  | 90 to 100 |  | > 2 | > 2 |  |  |  |  |  |  |  |
| O=C1OC(c2sc(Cl)c(Br)c2Cl)=NC12CC2 [I.09] | ≤ 30 | 70 to 79 | ≤ 30 | 4.01 | 90 to 100 | 90 to 100 | 90 to 100 | 70 to 79 | 90 to 100 | 90 to 100 | > 2 | > 2 |  |  |  |  |  |  |  |
| O=C1OC(c2sc(Cl)c(Cl)c2Br)=NC12CCC2 [I.22] | ≤ 30 | 80 to 89 | ≤ 30 | 4.55 | 90 to 100 | 90 to 100 |  |  | 90 to 100 |  |  |  |  |  |  |  |  |  |  |
| O=C1OC(c2sc(Br)c(Br)c2F)=NC12CCC2 [I.13] | ≤ 30 |  | ≤ 30 | 4.02 |  | 90 to 100 | 90 to 100 | 90 to 100 | 90 to 100 | 90 to 100 |  |  | 80 to 89 |  |  |  |  |  |  |
| Cc1c(C2=NC3(CC3)C(=O)O2)sc(C#N)c1Br [I.06, 3-bromo-4-methyl-5-(7-oxo-6-oxa-4-azaspiro[2.4]hept-4-en-5-yl)thiophene-2-carbonitrile] | ≤ 30 |  | ≤ 30 |  | 70 to 79 | 70 to 79 | 90 to 100 | 90 to 100 | 90 to 100 | 90 to 100 | > 2 | > 2 | 90 to 100 |  |  |  |  |  | 3.37 |
| Cc1c(C2=NC3(CC3)C(=O)O2)sc(Br)c1Cl [I.12] | ≤ 30 |  | ≤ 30 | 4.32 |  | 90 to 100 | 80 to 89 | 70 to 79 | 90 to 100 | 90 to 100 |  | > 2 | 90 to 100 |  |  |  |  |  |  |
| Cc1c(C2=NC3(CC3)C(=O)O2)sc(Cl)c1Br [I.11] | ≤ 30 |  | ≤ 30 | 4.39 | 80 to 89 | 90 to 100 | 90 to 100 | 70 to 79 | 90 to 100 | 90 to 100 | > 2 |  | 90 to 100 |  |  |  |  |  |  |
